# According to ChEMBL document CHEMBL5661980, “Discovery of OSI-906: a selective and orally efficacious dual inhibitor of the IGF-1 receptor and insulin receptor” (Future Med Chem, 2009):
# pIC50: −log10 of the molar value. Where “and” joins values, the source holds several entries; their conditions need not be identical. Identical values can stand only once.
# Experiments:
# [1] = Elimination half life in CD-1 mouse at 25 mg/kg, po measured after 1 to 24 hrs by HPLC-MS/MS analysis; assay type: ADME, organism-based; details: in vivo, time 1-24 hrs, read-out: beta t1/2 (converted)
# [2] = Plasma concentration in CD-1 mouse at 25 mg/kg, po measured after 24 hrs by HPLC-MS/MS analysis; assay type: ADME, organism-based
# [3] = Clearance in Sprague-Dawley rat at 5 mg/kg, iv measured after 1 to 24 hrs by HPLC-MS/MS analysis; assay type: ADME, organism-based; details: in vivo, time 1-24 hrs
# [4] = AUC (0 to infinity) in CD-1 mouse at 25 mg/kg, po measured after 1 to 24 hrs by HPLC-MS/MS analysis; assay type: ADME, organism-based; details: in vivo, time 1-24 hrs
# [5] = Volume of distribution at steady state in CD-1 mouse at 10 mg/kg, iv measured after 1 to 24 hrs by HPLC-MS/MS analysis; assay type: ADME, organism-based; details: in vivo, time 1-24 hrs, read-out: Vdss
# [6] = Plasma concentration in Sprague-Dawley rat at 20 mg/kg, po measured after 24 hrs by HPLC-MS/MS analysis; assay type: ADME, organism-based
# [7] = Cmax in CD-1 mouse at 25 mg/kg, po measured after 1 to 24 hrs by HPLC-MS/MS analysis; assay type: ADME, organism-based; details: in vivo, time 1-24 hrs
# [8] = Microsomal stability in dog liver microsomes assessed as extraction ratio in presence of NADPH for 0 to 40 mins by LC-MS/MS analysis; assay type: ADME, Canis lupus familiaris, Microsome; details: time 0-40 min, read-out: ERH
# [9] = molecular target: T1, Insulin-like growth factor 1 receptor (Homo sapiens, UniProt P08069); experiment: Inhibition of human recombinant IGF-1 receptor expressed in mouse 3T3 cells treated for 15 mins by ELISA analysis; assay type: cell-based
# T1 sequence (P08069 31-736 limits assumed): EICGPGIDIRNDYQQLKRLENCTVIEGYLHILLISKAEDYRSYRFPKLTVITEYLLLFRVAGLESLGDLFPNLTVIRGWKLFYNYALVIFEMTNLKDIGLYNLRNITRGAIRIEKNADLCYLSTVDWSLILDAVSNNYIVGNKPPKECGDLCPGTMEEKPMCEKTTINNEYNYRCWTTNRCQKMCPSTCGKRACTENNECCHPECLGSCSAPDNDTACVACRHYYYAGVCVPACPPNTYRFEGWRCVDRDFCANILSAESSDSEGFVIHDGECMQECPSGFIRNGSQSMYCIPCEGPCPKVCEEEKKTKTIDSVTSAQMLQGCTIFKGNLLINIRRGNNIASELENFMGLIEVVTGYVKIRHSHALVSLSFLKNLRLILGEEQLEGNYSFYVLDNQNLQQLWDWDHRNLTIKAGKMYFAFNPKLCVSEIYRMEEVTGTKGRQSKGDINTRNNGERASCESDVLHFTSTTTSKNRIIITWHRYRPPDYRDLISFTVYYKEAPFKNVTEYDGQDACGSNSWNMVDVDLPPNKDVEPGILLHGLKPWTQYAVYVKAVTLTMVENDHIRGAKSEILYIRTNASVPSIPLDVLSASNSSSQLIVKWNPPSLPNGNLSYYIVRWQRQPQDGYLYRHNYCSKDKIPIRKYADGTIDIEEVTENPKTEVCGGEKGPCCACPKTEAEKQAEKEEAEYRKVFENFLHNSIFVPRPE
# T1 sequence (P08069 741-1367 limits assumed): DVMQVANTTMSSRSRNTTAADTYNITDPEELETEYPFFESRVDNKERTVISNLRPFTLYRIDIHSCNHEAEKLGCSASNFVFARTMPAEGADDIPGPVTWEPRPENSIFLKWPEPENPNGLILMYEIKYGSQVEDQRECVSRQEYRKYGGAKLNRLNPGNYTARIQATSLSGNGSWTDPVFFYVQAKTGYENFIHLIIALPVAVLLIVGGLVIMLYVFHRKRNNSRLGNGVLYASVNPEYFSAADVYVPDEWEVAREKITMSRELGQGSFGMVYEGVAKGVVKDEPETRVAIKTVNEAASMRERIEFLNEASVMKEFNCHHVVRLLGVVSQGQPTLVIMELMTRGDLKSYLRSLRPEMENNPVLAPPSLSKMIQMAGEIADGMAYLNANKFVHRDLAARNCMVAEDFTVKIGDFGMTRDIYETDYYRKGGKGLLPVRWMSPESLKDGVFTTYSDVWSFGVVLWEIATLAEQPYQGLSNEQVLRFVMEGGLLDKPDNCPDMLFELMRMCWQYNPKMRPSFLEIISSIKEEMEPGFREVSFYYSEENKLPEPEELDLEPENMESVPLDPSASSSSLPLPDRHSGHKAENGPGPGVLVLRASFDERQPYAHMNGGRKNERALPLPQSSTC
# [10] = Microsomal stability in rat liver microsomes assessed as extraction ratio in presence of NADPH for 0 to 40 mins by LC-MS/MS analysis; assay type: ADME, Microsome; details: time 0-40 min, read-out: ERH
# [11] = Elimination half life in Sprague-Dawley rat at 20 mg/kg, po measured after 1 to 24 hrs by HPLC-MS/MS analysis; assay type: ADME, organism-based; details: in vivo, time 1-24 hrs, read-out: beta t1/2 (converted)
# [12] = Clearance in CD-1 mouse at 10 mg/kg, iv measured after 1 to 24 hrs by HPLC-MS/MS analysis; assay type: ADME, organism-based; details: in vivo, time 1-24 hrs
# [13] = Elimination half life in Sprague-Dawley rat at 5 mg/kg, iv measured after 1 to 24 hrs by HPLC-MS/MS analysis; assay type: ADME, organism-based; details: in vivo, time 1-24 hrs, read-out: beta t1/2 (converted)
# [14] = AUC (0 to infinity) in Sprague-Dawley rat at 20 mg/kg, po measured after 1 to 24 hrs by HPLC-MS/MS analysis; assay type: ADME, organism-based; details: in vivo, time 1-24 hrs
# [15] = Oral bioavailability in CD-1 mouse administered at 25 mg/kg measured after 1 to 24 hrs by HPLC-MS/MS analysis; assay type: ADME, organism-based; details: in vivo, time 1-24 hrs
# Cytochrome P450 3A4 = Cytochrome P450 3A4 (Homo sapiens, UniProt P08684); experiment: Inhibition of CYP3A4 (unknown origin) using luciferin as substrate in presence of NADPH generating system incubated for 20 mins by luminescent method; assay type: ADME
# Chain of Cytochrome P450 3A4 (P08684 whole entry): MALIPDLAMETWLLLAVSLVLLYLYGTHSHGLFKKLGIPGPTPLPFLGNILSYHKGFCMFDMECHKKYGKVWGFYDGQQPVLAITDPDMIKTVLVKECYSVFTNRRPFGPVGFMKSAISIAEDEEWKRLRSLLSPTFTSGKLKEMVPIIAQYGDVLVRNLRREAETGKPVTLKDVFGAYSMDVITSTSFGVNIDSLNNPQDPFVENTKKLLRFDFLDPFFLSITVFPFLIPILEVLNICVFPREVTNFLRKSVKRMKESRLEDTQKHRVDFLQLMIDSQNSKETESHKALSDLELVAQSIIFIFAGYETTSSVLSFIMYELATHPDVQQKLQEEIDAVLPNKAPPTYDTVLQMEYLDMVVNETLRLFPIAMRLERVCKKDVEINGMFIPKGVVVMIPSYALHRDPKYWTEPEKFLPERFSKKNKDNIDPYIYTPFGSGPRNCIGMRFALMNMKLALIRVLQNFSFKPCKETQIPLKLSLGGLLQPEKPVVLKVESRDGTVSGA
# in vitro [16] = details: mouse, liver microsomes
# Description: Microsomal stability in mouse liver microsomes assessed as extraction ratio in presence of NADPH for 0 to 40 mins by LC-MS/MS analysis
# [17] = Elimination half life in CD-1 mouse at 10 mg/kg, iv measured after 1 to 24 hrs by HPLC-MS/MS analysis; assay type: ADME, organism-based; details: in vivo, time 1-24 hrs, read-out: beta t1/2 (converted)
# [18] = Volume of distribution at steady state in Sprague-Dawley rat at 5 mg/kg, iv measured after 1 to 24 hrs by HPLC-MS/MS analysis; assay type: ADME, organism-based; details: in vivo, time 1-24 hrs, read-out: Vdss
# [19] = Oral bioavailability in Sprague-Dawley rat administered at 20 mg/kg measured after 1 to 24 hrs by HPLC-MS/MS analysis; assay type: ADME, organism-based; details: in vivo, time 1-24 hrs
# in vitro [20] = details: human, liver microsomes
# Description: Microsomal stability in human liver microsomes assessed as extraction ratio in presence of NADPH for 0 to 40 mins by LC-MS/MS analysis
# [21] = Cmax in Sprague-Dawley rat at 20 mg/kg, po measured after 1 to 24 hrs by HPLC-MS/MS analysis; assay type: ADME, organism-based; details: in vivo, time 1-24 hrs
# [22] = molecular target: T1, Insulin-like growth factor 1 receptor; experiment: Inhibition of human recombinant IGF-1 receptor in presence of ATP by ELISA analysis
# [23] = Cmax in CD-1 mouse at 50 mg/kg, po measured after 1 to 24 hrs by HPLC-MS/MS analysis; assay type: ADME, organism-based; details: in vivo, time 1-24 hrs
# [24] = Plasma concentration in athymic nu/nu CD-1 mouse at 100 mg/kg, po measured at 8 hrs by HPLC - UV analysis; assay type: ADME, organism-based
# [25] = Volume of distribution at steady state in CD-1 mouse at 5 mg/kg, iv measured after 1 to 24 hrs by HPLC-MS/MS analysis; assay type: ADME, organism-based; details: in vivo, time 1-24 hrs, read-out: Vdss
# [26] = Plasma concentration in athymic nu/nu CD-1 mouse at 100 mg/kg, po measured at 16 hrs by HPLC - UV analysis; assay type: ADME, organism-based
# [27] = AUC (0 to infinity) in CD-1 mouse at 50 mg/kg, po measured after 1 to 24 hrs by HPLC-MS/MS analysis; assay type: ADME, organism-based; details: in vivo, time 1-24 hrs
# [28] = Elimination half life in CD-1 mouse at 50 mg/kg, po measured after 1 to 24 hrs by HPLC-MS/MS analysis; assay type: ADME, organism-based; details: in vivo, time 1-24 hrs, read-out: beta t1/2 (converted)
# [29] = Plasma concentration in athymic nu/nu CD-1 mouse at 100 mg/kg, po measured at 4 hrs by HPLC - UV analysis; assay type: ADME, organism-based
# [30] = Plasma concentration in athymic nu/nu CD-1 mouse at 100 mg/kg, po measured at 1 hr by HPLC - UV analysis; assay type: ADME, organism-based
# [31] = Elimination half life in CD-1 mouse at 5 mg/kg, iv measured after 1 to 24 hrs by HPLC-MS/MS analysis; assay type: ADME, organism-based; details: in vivo, time 1-24 hrs, read-out: beta t1/2 (converted)
# [32] = Oral bioavailability in CD-1 mouse administered at 50 mg/kg measured after 1 to 24 hrs by HPLC-MS/MS analysis; assay type: ADME, organism-based; details: in vivo, time 1-24 hrs
# [33] = Clearance in CD-1 mouse at 5 mg/kg, iv measured after 1 to 24 hrs by HPLC-MS/MS analysis; assay type: ADME, organism-based; details: in vivo, time 1-24 hrs
smiles,measurement,setting,value
CN1CCN([C@H]2C[C@@H](c3nc(-c4ccc5ccc(-c6ccccc6)nc5c4)c4c(N)nccn43)C2)CC1,half-life,[1],23.6 h
same,concentration at 24 h,[2],1040 nM
same,clearance,[3],16 mL/min/kg
same,AUC(0-inf),[4],34500 ng·h/mL
same,Vd,[5],8 L/kg
same,concentration at 24 h,[6],740 nM
same,Cmax,[7],2200 nM
same,hepatic extraction ratio,[8],0.5
same,pIC50,[9],7.72
same,hepatic extraction ratio,[10],0.21
same,half-life,[11],28.7 h
same,clearance,[12],19 mL/min/kg
same,half-life,[13],20 h
same,AUC(0-inf),[14],28700 ng·h/mL
same,bioavailability,[15],100%
same,pIC50,Cytochrome P450 3A4,5.08
same,hepatic extraction ratio,in vitro [16],0.53
same,half-life,[17],5 h
same,Vd,[18],21 L/kg
same,bioavailability,[19],100%
same,hepatic extraction ratio,in vitro [20],0.59
same,Cmax,[21],1350 nM
same,pIC50,[22],7.62
Nc1nccn2c(C3CCC3)nc(-c3ccc4ccc(-c5ccccc5)nc4c3)c12,Cmax,[23],2680 nM
same,concentration at 8 h,[24],3110 ng/mL and 7.95 µM
same,Vd,[25],6.25 L/kg
same,concentration at 16 h,[26],1030 ng/mL and 2.64 µM
same,AUC(0-inf),[27],5170 ng·h/mL
same,pIC50,Cytochrome P450 3A4,5.48
same,half-life,[28],0.98 h
same,concentration at 4 h,[29],1810 ng/mL and 4.62 µM
same,concentration at 1 h,[30],3200 ng/mL and 8.19 µM
same,half-life,[31],0.98 h
same,bioavailability,[32],56%
same,clearance,[33],90 mL/min/kg
Nc1nccn2c1c(-c1ccc3ccc(-c4ccccc4)nc3c1)nc2[C@H]1CC[C@H](C(N)=O)CC1,Cmax,[23],11400 nM
same,pIC50,[9],7.38
same,AUC(0-inf),[27],52500 ng·h/mL
same,bioavailability,[32],77%
Nc1nccn2c(C3CC(O)C3)nc(-c3ccc4ccc(-c5ccccc5)nc4c3)c12 (stereo not drawn),concentration at 8 h,[24],4650 ng/mL and 11.4 µM
same,concentration at 16 h,[26],2360 ng/mL and 5.8 µM
same,concentration at 4 h,[29],3660 ng/mL and 8.99 µM
same,concentration at 1 h,[30],4590 ng/mL and 11.3 µM
